Assay results as given in ChEMBL document CHEMBL5365511, “Novel Compounds as TEAD Inhibitors for Treating Cancer” (ACS Med Chem Lett, 2023).

What was measured:
[1] = molecular target: Transcriptional enhancer factor TEF-4 (Homo sapiens, UniProt Q15562); test: Displacement of biotinylated lipid pocket probes from His-tagged TEAD2 (unknown origin) preincubated for 4 hrs followed by lipid pocket probe addition and measured after 60 mins by TR-FRET assay
[2] = molecular target: Transcriptional enhancer factor TEF-3 (Homo sapiens, UniProt Q15561); test: Displacement of biotinylated lipid pocket probes from His-tagged TEAD4 (unknown origin) preincubated for 4 hrs followed by lipid pocket probe addition and measured after 60 mins by TR-FRET assay
Transcriptional enhancer factor TEF-3, sequence (Q15561 whole entry): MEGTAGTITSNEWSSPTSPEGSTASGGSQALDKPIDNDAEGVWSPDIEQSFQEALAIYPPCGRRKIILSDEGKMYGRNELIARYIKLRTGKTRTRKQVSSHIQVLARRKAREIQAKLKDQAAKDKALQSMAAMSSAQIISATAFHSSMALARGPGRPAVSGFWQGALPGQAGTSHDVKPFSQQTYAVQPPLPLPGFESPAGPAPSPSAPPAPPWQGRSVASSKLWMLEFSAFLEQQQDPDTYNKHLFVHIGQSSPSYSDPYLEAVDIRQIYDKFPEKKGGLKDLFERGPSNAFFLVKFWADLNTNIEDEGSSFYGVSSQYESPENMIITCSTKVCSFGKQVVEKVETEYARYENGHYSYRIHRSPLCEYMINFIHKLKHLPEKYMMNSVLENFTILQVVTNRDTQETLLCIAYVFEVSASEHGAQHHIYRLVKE

[3] = molecular target: Transcriptional enhancer factor TEF-1 (Homo sapiens, UniProt P28347); test: Displacement of biotinylated lipid pocket probes from His-tagged TEAD1 (unknown origin) preincubated for 4 hrs followed by lipid pocket probe addition and measured after 60 mins by TR-FRET assay
Transcriptional enhancer factor TEF-1, sequence (P28347 whole entry): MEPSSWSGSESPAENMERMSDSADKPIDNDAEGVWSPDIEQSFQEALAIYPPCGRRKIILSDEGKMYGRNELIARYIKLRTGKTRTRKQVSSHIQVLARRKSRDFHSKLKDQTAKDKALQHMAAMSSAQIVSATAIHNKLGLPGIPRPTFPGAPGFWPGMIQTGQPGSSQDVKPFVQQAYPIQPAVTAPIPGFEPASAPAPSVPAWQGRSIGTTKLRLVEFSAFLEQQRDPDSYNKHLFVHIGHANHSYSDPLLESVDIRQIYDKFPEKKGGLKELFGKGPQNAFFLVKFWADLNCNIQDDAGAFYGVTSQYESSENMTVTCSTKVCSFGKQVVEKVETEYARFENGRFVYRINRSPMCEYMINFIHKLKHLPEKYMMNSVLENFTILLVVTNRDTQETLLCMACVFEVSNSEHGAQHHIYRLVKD

[4] = molecular target: Transcriptional enhancer factor TEF-5 (Homo sapiens, UniProt Q99594); test: Displacement of biotinylated lipid pocket probes from His-tagged TEAD3 (unknown origin) preincubated for 4 hrs followed by lipid pocket probe addition and measured after 60 mins by TR-FRET assay
Transcriptional enhancer factor TEF-5, sequence (Q99594 whole entry): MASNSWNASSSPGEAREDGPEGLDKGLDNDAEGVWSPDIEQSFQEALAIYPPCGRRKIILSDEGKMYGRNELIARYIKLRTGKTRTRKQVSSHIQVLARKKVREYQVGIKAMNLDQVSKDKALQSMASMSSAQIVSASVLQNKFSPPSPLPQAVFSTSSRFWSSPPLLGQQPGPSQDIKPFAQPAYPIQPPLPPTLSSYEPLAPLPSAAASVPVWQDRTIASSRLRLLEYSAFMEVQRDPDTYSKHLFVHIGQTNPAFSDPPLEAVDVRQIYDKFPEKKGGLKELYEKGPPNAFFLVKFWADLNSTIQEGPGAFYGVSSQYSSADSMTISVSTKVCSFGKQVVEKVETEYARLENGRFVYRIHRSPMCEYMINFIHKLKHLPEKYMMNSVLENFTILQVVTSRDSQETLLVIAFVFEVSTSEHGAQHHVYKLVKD

Transcriptional enhancer factor TEF-4, sequence (Q15562 whole entry): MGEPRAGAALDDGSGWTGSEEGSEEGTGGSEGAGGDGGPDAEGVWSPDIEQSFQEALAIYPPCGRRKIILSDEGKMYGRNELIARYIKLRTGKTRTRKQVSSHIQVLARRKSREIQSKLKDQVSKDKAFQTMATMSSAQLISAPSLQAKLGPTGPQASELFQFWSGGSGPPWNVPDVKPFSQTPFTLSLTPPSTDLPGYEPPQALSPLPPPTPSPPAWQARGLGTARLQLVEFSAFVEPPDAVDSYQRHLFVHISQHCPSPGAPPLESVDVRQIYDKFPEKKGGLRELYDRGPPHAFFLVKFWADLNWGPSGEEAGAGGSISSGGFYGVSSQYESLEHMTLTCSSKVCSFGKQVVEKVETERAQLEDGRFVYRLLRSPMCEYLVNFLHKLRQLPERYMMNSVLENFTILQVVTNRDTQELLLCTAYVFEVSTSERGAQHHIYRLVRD

| Compound | IC50 [1] | IC50 [2] | IC50 [3] | IC50 [4] |
| --- | --- | --- | --- | --- |
| Cn1cnc2c(-c3ccc(OC(F)(F)F)cc3)nc(C3CN(C(=O)C4=CCC4)C3)nc21 | 4 nM | 2 nM |  |  |
| C=CC(=O)N(C)Cc1cc(-c2ccc(OC(F)(F)F)cc2)c2c(c1CO)CCO2 | 6 nM | 3 nM | 4 nM | 7 nM |
| C=CC(=O)NCc1cc(-c2ccc(OC(F)(F)F)cc2)c2ncn(C)c2c1C#CCO |  | 3 nM | 6 nM |  |
| C=CC(=O)N1CC(c2nc(-c3ccc(OC(F)(F)F)cc3)c3ncsc3n2)C1 | 4 nM | 2 nM | 3 nM | 3 nM |
